Like-named read-outs stand apart in the source and are kept apart here.
Legend:
[1] = test system: Rhyzopertha dominica (F.), strain Rd2; conditions: R. dominica adults, cited from earlier work
[2] = cited from earlier work
[3] = cited from earlier work; for carcinogenicity: Sax and Lewis, 1989; for TLV value: worker safety limit
Cryptotermes domesticus = assay: Toxicity to dry wood termites, C. domesticus; assay type: in vivo; conditions: 24 h, 30° C., survival after one week
Protocol: (§1) Termites were obtained from cultures kept at 30° C. and 80% RH. Termites were transferred to 120 mL bottles fitted with Mininert valved lids and a 325 mg chip of plywood and sealed whilst at 80% RH and 30° C. All fumigations were performed in duplicate with a sample size of 10-11 insects for C. brevis, 25 insects for C. cyanocephalos and 22 insects for C. domesticus. An appropriate volume of air was removed from the sample bottles prior to the addition of fumigants. Dosed samples were analysed on a gas chromatograph to ensure concentrations were as predicted. A second set of gas chromatograph readings was taken prior to airing to ensure fumigant concentrations had remained static throughout the exposure period. […]
(§2) C2 N2 concentrations were measured on a Varian 3300 Gas Chromatograph equipped with a Thermionic Specific Detactor after separation on a DBwax column of internal diameter 0.53 mm. Phosphine concentrations were measured on a Shimadzu 6AM equipped with a Flame Photometric Detector. Methyl bromide concentrations were measured on a Shimadzu 6AM equipped with a Flame Ionisation Detector after separation on a GasChromQ with 20% OV-IO1 column.
(§3) After 24 hours exposure, termites and wood chips were transferred to plastic Petri dishes each containing a large piece of plywood. Initial and one week survivals were recorded.

[4] = test system: Cryptotermes cyanocephalos; assay: Toxicity to dry wood termites, C. cyanocephalos; assay type: in vivo; conditions: 24 h, 30° C., survival after one week
Protocol: as §1, §2, §3

[5] = Sorption and desorption on wheat, comparative; conditions: 25 g wheat; C2 N2 10 mg/L, phosphine 2 mg/L, methyl bromide 32 mg/L
Protocol: Samples of wheat (25 g) were placed in 250 mL conical flasks of known volume. The flasks were stoppered with a gas tight stopper containing a rubber septum (injection port). Flasks were dosed with C2 N2 (10 mg/L), phosphine (2 mg/L) or methyl bromide (32 mg/L). After 24 h the headspace concentrations were determined by gas chromatography. Each flask was then opened and the wheat sample aired briefly by pouring the wheat from one container to another and then the remaining sorbed fumigant was estimated by grinding the wheat sample in a gas-tight Waring blender canister fitted was a sampling port and determining the released fumigant by head space analysis.

Cryptotermes brevis = assay: Toxicity to dry wood termites, C. brevis; assay type: in vivo; conditions: 24 h, 30° C., survival after one week
Protocol: as §1, §2, §3

Carnation = assay: Phytotoxicity to cut flowers, Carnation; conditions: methyl bromide 30 mg L^-1, 2 h; control 5
Protocol: (§4) Field Carnations and Leucadendrons were purchased from a local wholesale florist. […]
(§5) After 2 hours the drums were opened and allowed to air in a fume hood, the flowers were removed from the drums, the stems trimmed and the bunches placed in water and left in the fume hood to air for 2 hours then placed in a cool room.
(§6) Assessment of the phytoxicity of the fumigants was done after one week of cold storage.
(§7) The phytoxicity assessments were made by a panel of six people who were asked independently to give a value out of 10 (Where 10 is excellent and 1 is unsaleable) for each flower and each treatment. The figures given below are the averaged results.

Leucadendron = assay: Phytotoxicity to cut flowers, Leucadendron; conditions: methyl bromide 30 mg L^-1, 2 h; control 7
Protocol: as §4, §5, §6, §7

## S=C=S [carbon disulphide]
[1]; Monro, 1967
  CT product for control of adults: 294.0 mghL^-1

## C1CO1 [ethylene oxide]
[2]
  solubility in water: poorly soluble in water
[3]
  carcinogenicity: suspect carcinogen
  TLV value: 0.1 ppm

## O=C=S [carbonyl sulphide]
[1]; Desmarchelier 1994
  CT product for control of adults: 68.7 mghL^-1

## C=O [formaldehyde]
[3]
  carcinogenicity: suspect carcinogen
  TLV value: 1 ppm

## ClCCCl [ethylene dichloride]
[1]; Monro, 1967
  CT product for control of adults: 636.0 mghL^-1

## P [phosphine]
Cryptotermes domesticus
  applied concentration giving 100% mortality: 0.22 mgL^-1
[4]
  applied concentration giving 100% mortality: 0.43 mgL^-1
[5]
  initial fumigant remaining in headspace after 24 h: 91%
Cryptotermes brevis
  applied concentration giving 100% mortality: 0.43 mgL^-1

## CBr [methyl bromide]
Carnation
  phytotoxicity score (10 excellent, 1 unsaleable): 3
Leucadendron
  phytotoxicity score (10 excellent, 1 unsaleable): 6
[1]; Monro, 1967
  CT product for control of adults: 33.0 mghL^-1
Cryptotermes domesticus
  applied concentration giving 100% mortality: 4.35 mgL^-1
[4]
  applied concentration giving 100% mortality: 3.47 mgL^-1
[5]
  initial fumigant remaining in headspace after 24 h: 69%
Cryptotermes brevis
  applied concentration giving 100% mortality: 1.74 mgL^-1

From patent US6001383A (priority 1994, dated 1999)
